From patent US10322995B2, “Substituted cyano cycloalkyl penta-2,4-dienes, cyano cycloalkyl pent-2-en-4-ynes, cyano heterocyclyl penta-2,4-dienes and cyano heterocyclyl pent-2-en-4-ynes as active substances against abiotic plant stress” (BAYER CROPSCIENCE AKTIENGESELLSCHAFT, priority 2014, dated 2019)

Molecular target: T1, phosphatase ABI1 via the co-regulator RCAR11/PYR1 (Arabidopsis thaliana, UniProt O49686+P49597)
T1 sequence (O49686 1-191): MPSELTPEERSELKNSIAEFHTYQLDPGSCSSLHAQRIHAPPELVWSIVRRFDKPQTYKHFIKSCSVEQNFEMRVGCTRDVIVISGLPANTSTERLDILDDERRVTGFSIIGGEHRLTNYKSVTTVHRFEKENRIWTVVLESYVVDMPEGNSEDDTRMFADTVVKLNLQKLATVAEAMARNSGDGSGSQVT
T1 sequence (P49597 1-434): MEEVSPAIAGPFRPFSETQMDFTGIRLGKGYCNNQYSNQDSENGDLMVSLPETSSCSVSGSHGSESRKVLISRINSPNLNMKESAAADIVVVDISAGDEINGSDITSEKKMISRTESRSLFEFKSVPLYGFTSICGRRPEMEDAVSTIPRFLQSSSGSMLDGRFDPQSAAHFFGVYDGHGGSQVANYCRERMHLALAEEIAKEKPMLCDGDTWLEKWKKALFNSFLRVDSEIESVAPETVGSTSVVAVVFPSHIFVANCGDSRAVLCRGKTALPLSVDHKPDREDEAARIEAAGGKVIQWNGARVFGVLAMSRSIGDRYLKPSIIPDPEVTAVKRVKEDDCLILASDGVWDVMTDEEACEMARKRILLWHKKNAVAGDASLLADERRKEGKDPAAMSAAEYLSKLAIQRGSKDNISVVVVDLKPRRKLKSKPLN
Test: In vitro assay: inhibition of the phosphatase ABI1 via the co-regulator RCAR11/PYR1, MUP dephosphorylation, fluorescence
Assay type: biochemical
Parameters: inhibition: dose or concentration left out as unconfirmed
Conditions: MUP dephosphorylation, fluorescence 460 nm; for ABI1 inhibition: concentration of 5 mM of the substance in a solution of DMSO and water
Method in brief: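 ABI1 (0.15 μg/well) with RCAR11 (0.30 μg/well) in Tris-HCl pH 8, NaCl, MnCl2, DTT and Tween20, with MUP as substrate; 20 min at 35 °C, fluorescence at ex 340/em 460 nm. Compounds were in DMSO/water, esterase-pretreated if needed, with DMSO 0.5% and ABA 5 μM as controls. Inhibition was binned into ≥90, 70–90, 50–70 and 30–50% classes.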

Row | SMILES | inhibition (read-out: ABI1 inhibition) [%] | ABI1 inhibition
1 | CCOC(=O)/C=C(\C#CC(O)(C(C)C)C1(C#N)CC1)C1CC1 (stereo not drawn) [I.1-124, Ethyl (2Z)-6-(1-cyanocyclopropyl)-3-cyclopropyl-6-hydroxy-7-methyloct-2-en-4-ynoate] | > 90 | –
2 | CCOC(=O)/C=C(\C#CC(O)(C(C)C)C1(C#N)CC1)CC (stereo not drawn) [I.1-103] | – | ++++ (inhibition≥90%)
3 | COC(=O)/C=C(/C)C#CC(O)(C(C)C)C1(C#N)CC1 (stereo not drawn) [I.1-135] | – | ++++ (inhibition≥90%)
4 | CCOC(=O)/C=C(/C)C#CC(O)(C(C)C)C1(C#N)CC1 (stereo not drawn) [I.1-136] | – | +++ (90%>inhibition≥70%)

Next, values leading:

Row | inhibition (read-out: ABI1 inhibition) [%] | ABI1 inhibition | SMILES
5 | – | ++++ (inhibition≥90%) | CCC(C=CC(O)(c1ccccc1)C1(C#N)CC1)=CC(=O)O (racemic) [I.2-201]
6 | – | ++++ (inhibition≥90%) | CC/C(C#CC(O)(c1ccccc1)C1(C#N)CC1)=C/C(=O)OC (stereo not drawn) [I.1-202]
7 | – | ++++ (inhibition≥90%) | CCCOC(=O)/C=C(\C#CC(O)(C(C)C)C1(C#N)CC1)CC (stereo not drawn) [I.1-605]
8 | – | ++++ (inhibition≥90%) | CC/C(C#CC(O)(C1CCC1)C1(C#N)CC1)=C/C(=O)OC (stereo not drawn) [I.1-648]
9 | – | ++++ (inhibition≥90%) | CCCOC(=O)/C=C(\C#CC(O)(c1ccccc1)C1(C#N)CC1)CC (stereo not drawn) [I.1-609]
